According to patent publication US20170273922A1, “UREA AND BIS-UREA BASED COMPOUNDS AND ANALOGUES THEREOF USEFUL IN THE TREATMENT OF ANDROGEN RECEPTOR MEDIATED DISEASES OR DISORDERS” (THE ROYAL INSTITUTION FOR THE ADVACEMENT OF LEARNING/MCGILL …, priority 2014, published 2017):
Entries after “also recorded” stand apart in the source; their conditions may differ.

Experiments:
22Rv1 cells = assay: MTT assay (cytotoxicity), 22Rv1 cells; format: cell-based; details: 22Rv1 cells, 72 h, Table 4.2
Summary of the method: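 MTT viability readout after 72 h compound exposure (designated concentrations, DMSO vehicle control) in RPMI 1640/10% FBS. Seeding 6-7×10^3 cells/well, overnight attachment before dosing. Triplicate wells, ≥2 independent repeats.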

[1] = biological target: T1, glucocorticoid receptor (GR) (Homo sapiens, UniProt P04150); assay: GR MMTV-luc reporter assay in PC3 cells; format: cell-based; design: interference with transcriptional activity of GR: dose or concentration left out as unconfirmed; details: for effect on GR transcriptional activation induced by DEX (MMTV-luc): 10 nM DEX, 24 h; for agonism of GR (MMTV-luc): absence of DEX
T1 construct: PC3 cells express endogenous GR; endogenous in cells; host or cells: PC3
T1 sequence (P04150 1-777): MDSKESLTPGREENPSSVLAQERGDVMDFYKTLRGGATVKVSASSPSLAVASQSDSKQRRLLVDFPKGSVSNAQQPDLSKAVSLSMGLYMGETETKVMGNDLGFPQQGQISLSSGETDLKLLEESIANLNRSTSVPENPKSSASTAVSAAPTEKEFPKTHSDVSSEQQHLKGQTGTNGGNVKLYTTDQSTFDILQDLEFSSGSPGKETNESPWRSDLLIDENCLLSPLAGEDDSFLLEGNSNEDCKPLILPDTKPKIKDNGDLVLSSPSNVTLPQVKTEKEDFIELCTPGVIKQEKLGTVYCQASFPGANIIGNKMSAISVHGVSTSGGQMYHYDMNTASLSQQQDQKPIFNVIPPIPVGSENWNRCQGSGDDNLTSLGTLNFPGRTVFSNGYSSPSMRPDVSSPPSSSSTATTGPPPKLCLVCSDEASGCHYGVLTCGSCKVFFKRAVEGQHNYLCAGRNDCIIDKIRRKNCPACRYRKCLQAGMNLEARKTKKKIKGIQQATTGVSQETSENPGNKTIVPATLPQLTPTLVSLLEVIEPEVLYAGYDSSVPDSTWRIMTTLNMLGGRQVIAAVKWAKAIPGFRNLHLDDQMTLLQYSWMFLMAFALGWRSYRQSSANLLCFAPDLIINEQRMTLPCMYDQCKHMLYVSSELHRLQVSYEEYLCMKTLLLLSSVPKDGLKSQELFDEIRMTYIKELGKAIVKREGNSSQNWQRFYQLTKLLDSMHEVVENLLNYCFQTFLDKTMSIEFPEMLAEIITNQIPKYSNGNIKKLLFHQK
Text: A) PC3 cells express endogenous GR. MMTV-Luc and pRL-TK were transiently co-transfected into PC3 cells.
AR and GR are close homology proteins and both of them belong to steroid receptor family. […] MMTV-luc reporter and pRL-TK plasmids were transiently co-transfected into PC3 cells, which endogenously express GR. […] DEX is an agonist of the GR.

[2] = system: endogenous AR-Vs in 22Rv1 cells; assay: PSA-luc reporter assay in androgen-starved 22Rv1 cells (endogenous LBD-truncated AR variants); details: androgen-starved 3 days, 24 h exposure
Description: NT, LNCaP cells were transiently transfected with pIRES vector, PSA-luc and pRL-TK. […] Cells were then transiently transfected with PSA-Luc and pRL-TK and exposed to DMSO or compounds for 24 h, in triplicate. NT, not transfected with PSA-luc.
The ARs were probed by N-terminal directed AR antibody (N20, Santa Cruz); B) The 22Rv1 cells were androgen-starved (in phenol red-free medium+10% CS-FBS) for 3 days to ensure the full-length AR expressed in 22Rv1 are not activated. The 22Rv1 cells were subsequently co-transfected with PSA-luc and pRL-TK plasmids. […] Cells in phenol red-free medium+10% CS-FBS were exposed to DMSO or compounds for 24 h and harvested for Western blot analysis.
The cells were androgen-starved for 3 days and transfected with PSA-Luc and pRL-TK plasmids. NT, cells were transfected with empty vector. Cells were exposed to vehicle control or compounds for 24 h.

AR-v7 = biological target: T2, AR-v7 (Homo sapiens, UniProt P10275); assay: AR-v7-dependent PSA-luc reporter assay in HEK293 cells; details: for potency relative to EPI-001 at 25 μM in suppressing constitutive activation of wild-type AR-v7: compounds at 2.5 μM
T2 sequence (P10275 1-644 isoform P10275-3): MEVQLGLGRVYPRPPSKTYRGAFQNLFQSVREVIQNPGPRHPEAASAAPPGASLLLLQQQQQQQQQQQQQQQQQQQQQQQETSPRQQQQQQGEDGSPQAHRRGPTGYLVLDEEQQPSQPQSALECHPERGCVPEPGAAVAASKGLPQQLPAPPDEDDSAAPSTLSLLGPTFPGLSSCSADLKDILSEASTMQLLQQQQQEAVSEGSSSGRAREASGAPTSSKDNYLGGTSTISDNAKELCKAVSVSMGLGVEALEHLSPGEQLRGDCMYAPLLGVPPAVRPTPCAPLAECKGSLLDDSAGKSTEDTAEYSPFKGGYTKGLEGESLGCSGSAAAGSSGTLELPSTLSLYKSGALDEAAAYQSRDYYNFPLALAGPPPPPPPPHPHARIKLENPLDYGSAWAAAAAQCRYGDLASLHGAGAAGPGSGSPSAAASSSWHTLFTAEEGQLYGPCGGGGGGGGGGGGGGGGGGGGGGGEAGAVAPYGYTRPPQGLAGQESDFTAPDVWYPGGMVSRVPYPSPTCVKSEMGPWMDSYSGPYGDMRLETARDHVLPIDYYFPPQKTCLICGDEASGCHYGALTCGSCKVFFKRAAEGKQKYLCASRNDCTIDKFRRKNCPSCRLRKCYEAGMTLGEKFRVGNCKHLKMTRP
Description: Cells were exposed to vehicle control or compounds at designated concentrations (μM) for 48 h.

[3] = system: PSA expression in LNCaP cells; assay: Western blot of PSA expression in LNCaP cells; format: cell-based; details: 24 h; for suppression of PSA expression in LNCaP cells (FIG. 19C): whole medium
Description: FIG. 11: A) Compounds 562 and 746 suppressed DHT-induced AR activation in LNCaP cells which endogenously express the T877A mutant; B) Western blot analysis indicated compound 746 at 2.5 μM suppressed DHT-induced expression of the PSA in LNCaP cells. […] ENZ, enzalutamide; BIC, bicalutamide; EPI, EPI-001.
Experiments were in duplicate and repeated three times. […] LNCaP cells in whole medium were exposed to DMSO vehicle control or compounds for 24 h.

| interference with transcriptional activity of GR [1] | inhibition of constitutive activation of AR-v7 (PSA-luc) (AR-v7; 2.5 μM) | potency relative to EPI-001 at 25 μM in suppressing constitutive activation of wild-type AR-v7 (AR-v7) | SMILES | IC50 (22Rv1 cells) | effect on GR transcriptional activation induced by DEX (MMTV-luc) ([1]; PC3 cells) | suppression of GR transactivation induced by 10 nM DEX ([1]; 5 μM, PC3 cells) | agonism of GR (MMTV-luc) ([1]; 5 μM) | agonism of GR (MMTV-luc) ([1]; PC3 cells) | activity against constitutive activation of endogenous AR-Vs in 22Rv1 cells (PSA-luc) [2] | inhibition of constitutive activation of AR-v7 (PSA-luc) (AR-v7; 24 h) | suppression of PSA expression in LNCaP cells (FIG. 19C) [3] | suppression of PSA expression in LNCaP cells (FIG. 11B) ([3]; 10 nM DHT) | suppression of DHT-induced expression of the PSA in LNCaP cells ([3]; 2.5 μM, 10 nM DHT) |
| --- | --- | --- | --- | --- | --- | --- | --- | --- | --- | --- | --- | --- | --- |
|  |  |  | O=C(Nc1cccc(C(F)(F)F)c1)Nc1ccc([N+](=O)[O-])c(C(F)(F)F)c1 [Compound 442] | 1.5 µM | inactive | inactive | non-agonist | non-agonist | significantly suppressed; also recorded: active | inhibited | dose-dependently suppressed |  |  |
|  |  |  | N#Cc1ccc(NC(=O)Nc2cccc(C(F)(F)F)c2)cc1C(F)(F)F [Compound 467] | 1.7 µM | inactive | inactive | non-agonist | non-agonist | significantly suppressed; also recorded: active | inhibited | dose-dependently suppressed |  |  |
|  |  |  | N#Cc1ccc(NC(=O)Nc2cccc(C(F)(F)F)c2)cc1Cl [Compound 492] | 1.9 µM | inactive | inactive | non-agonist |  |  | inhibited |  |  |  |
| do not interfere | inhibit | more potent than EPI-001 at 25 μM | O=C(N/C=C/c1cccc(C(F)(F)F)c1)Nc1ccncn1 [Compound 562] |  | do not interfere; also recorded: selective towards the AR |  |  |  | remain active; also recorded: greater inhibitory activity than EPI-001 | dose-dependently inhibit |  | suppressed |  |
| do not interfere | inhibit | more potent than EPI-001 at 25 μM | O=C(Nc1ccc(Br)nc1)Nc1cc(C(F)(F)F)cc(C(F)(F)F)c1 [Compound 566] |  | do not interfere |  |  |  | active; also recorded: greater inhibitory activity than EPI-001 |  |  |  |  |
| do not interfere | inhibit |  | O=C(Nc1cccc(C(F)(F)F)c1)Nc1ccc(NC(=O)c2ccccc2F)c(C(F)(F)F)c1 [Compound 746] |  | do not interfere; also recorded: selective towards the AR |  |  |  | remain active; also recorded: greater inhibitory activity than EPI-001 | dose-dependently inhibit |  | suppressed | suppressed |
